From patent US9981956B2, “Small molecule inhibitors of fibrosis” (THE CALIFORNIA INSTITUTE FOR BIOMEDICAL RESEARCH, priority 2013, dated 2018)
Where two headings read alike, the source gives them in different places.

What was measured:
Type in all cases: cell-based
[1] = tested on: Candida albicans (ATCC 10231); assay: Candida albicans anti-fungal MIC potency determination
Protocol: The wild type Candida albicans (ATCC 10231) was used and Fluconazole, amphotericin B, itraconazole and terbinafine were purchased from Sigma and used as positive controls.
The highest assay concentration for all test compounds and fluconazole was 100 μM. Fluconazole was also tested at the highest concentration of 64 μg/ml, and amphotercin B and terbinafine at 16 and 64 μg/ml. The test compounds were in DMSO stock solution at a concentration of 10 mM. Two stock solutions in DMSO were prepared for fluconazole at 10 mM and 6.4 mg/ml. Amphotericin B and terbinafine stock solutions in DMSO were prepared at 1.6 and 6.4 mg/ml.
Serial dilution of 100× stock solutions: 4 μl of stock solution was added into 196 μl of RPMI1640 (MOPS buffered and free of HEPES and sodium bicarbonate) in the first well of a row of a sterile u-bottom 96-well plate. The rest of the wells was filled with 100 μl RPMI1640. The 2-fold serial dilution was made sequentially by transferring 100 μl solution to the next well and mixing by pipetting, until 11th well. The extra 100 μl in 11th well was discarded. Therefore, the compound wells contained 100 μl of 2× of testing concentrations of drugs in RPMI1640. The 12th well was filled with only 100 μl RPMI1640.
C. albicans 3147 (ATCC 10231) glycerol frozen stock was streaked on Sabouraud dextrose agar (SDA). The plate was incubated at 35° C. ambient atmosphere for 20 h. Single colonies were suspended into sterile saline until turbidity reached 0.1 (1-5×10^6 CFU/ml) using a Siemens turbidity meter. This suspension was diluted 50× in RPMI1640 in a 15 ml conical, and then it was further diluted 20× in RPMI1640 in a 50 ml conical. This gave 1-5×10^3 CFU/ml suspension and was used as inoculum. The cell density in inoculum was plate-counted to be 4.94×10^3 CFU/ml.
The plates were incubated at 35° C. in ambient atmosphere. The photos were taken at 24 h and 48 h. The MIC end points for fluconazole and amphotericin B were read according to the M27-A3 protocol (Reference Method for Broth Dilution Antifungal Susceptibility Testing of Yeasts; Approved Standard-Third Edition, M27-A3 standard published Jan. 1, 2008 by Clinical and Laboratory Standards Institute). The MIC for compounds for test cmpds and terbinafine (not mentioned in M27-A3 protcol) were read as if they were azoles.

PXR = biological target: T1, PXR (Homo sapiens, UniProt O75469); assay: PXR (Cyp 3A4) activation assay in DPX2 cells; conditions: compounds tested at 10, 1 and 0.1 μM, read-out: PXR activation (fold induction compared to Rifampicin)
T1 construct: expressed in transfected cells; host or cells: DPX2 cells
T1 sequence (O75469 1-434): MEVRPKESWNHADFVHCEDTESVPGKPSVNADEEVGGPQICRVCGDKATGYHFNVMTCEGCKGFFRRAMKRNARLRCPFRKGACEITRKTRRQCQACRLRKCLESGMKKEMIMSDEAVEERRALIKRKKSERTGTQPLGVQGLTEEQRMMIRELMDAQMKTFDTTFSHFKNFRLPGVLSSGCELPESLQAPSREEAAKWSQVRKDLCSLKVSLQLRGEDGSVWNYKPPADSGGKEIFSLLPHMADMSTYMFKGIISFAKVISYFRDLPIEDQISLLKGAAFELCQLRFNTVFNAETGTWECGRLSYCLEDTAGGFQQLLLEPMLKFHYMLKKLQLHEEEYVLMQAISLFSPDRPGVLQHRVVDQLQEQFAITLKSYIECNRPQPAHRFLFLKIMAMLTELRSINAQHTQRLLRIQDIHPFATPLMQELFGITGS
Protocol: CYP3A4 metabolism was evaluated by using P450-Glo™ CYP3A4 Assay with Luciferin-IPA as the substrate of CYP3A4 and represented as RLU (Relative Luminescence Units). PXR activation was evaluated by using a luciferase detection reagent, ONE-Glo™ and represented as RLU. The luminescence light intensity was directly proportional to the extent of PXR activation and accompanying gene transcription in the DPX2 cells. Compounds were tested at 10, 1, and 0.1 μM in the assay. Fold of induction=(RLU/RFU of compound treated sample)/(RLU/RFU of vehicle treated sample), RFU was the signal of cell viability. RLU was the signal of CYP3A metabolism and PXR activation. 0.1% DMSO was used as vehicle. Cell viability was detected by using CellTiter-Fluor™ and represented as RFU (Relative Fluorescence Units).
Activation potency was defined as negative, weak, moderate and strong. Negative, weak, moderate and strong activators are those that give <15%, <40%, <69% and >70%, respectively, of the response produced by 10 μM RIF at 10 μM.

[2] = tested on: fibroblast to myofibroblast transdifferentiation (primary human lung fibroblasts and primary rodent HSCs); assay: High content imaging and western based assay of fibroblast to myofibroblast transdifferentiation (α-SMA); conditions: graded, TGF-β induced fibroblast to myofibroblast transdifferentiation
Text: A high content imaging assay, based on α-SMA staining and cell morphological changes associated with fibroblast to myofibroblast transdifferentiation, was established using primary human lung fibroblasts and primary rodent HSCs. Conditions, involving serum starvation and subsequent TGF-β treatment, were identified that facilitate robust in vitro transdifferentiation in a miniaturized (384 well plate) format that is amenable to high throughput small molecule screening. A selective ALK-5 TGF-β1 receptor inhibitor (SB-431542) was used as a positive control. […] This assay was used to identify a hit compound (itraconazole) and was used to evaluate focused panels of itraconazole analogues generated from medicinal chemistry efforts.
The activity of Itraconazole and its analogues was confirmed by analyzing changes in gene expression of multiple genes associated with fibroblast to myofibroblast transdifferentiation using biochemical methods (i.e., Western blot and RT-PCR). These 4-day assays were used to evaluate sets of 6 compounds at a time in 4-point dose response fashion.
After 24 hour incubation, cells were treated with the indicated doses of itraconazole for 48 hours in the presence of 10 ng/mL of TGF-β1 in hepatic stellate medium. Following fixation and staining with an anti smooth muscle actin antibody, cell morphology was analyzed with a Cellomics cell insight imaging reader (FIG. 1 for representative images). Cells were analyzed for mean cellular area of a-SMA staining (FIG. 5a) or mean fluorescence intensity of SMA staining (FIG. 5b).
After 24 incubation, medium was changed to assay medium containing TGF-β1 (10 ng/mL) and simultaneously treated with itraconazole (10 μM), SB431542 (10 μM) or vehicle control (FIG. 6).

[3] = ATCC10231, 24 h, read-out: C. Albicans MIC90 at 24 h
[4] = ATCC10231, 48 h, read-out: C. Albicans MIC90 at 48 h

MIC90 [1, 3] [µM] | MIC90 [1, 4] [µM] | fold induction (PXR) | SMILES | EC50 [2] [nM]
> 100 | > 100 | ~1.1 | CCC(C)n1ncn(-c2ccc(N3CCN(c4ccc(OC[C@@H]5CO[C@@](Cc6ccnnc6)(c6ccc(Cl)cc6Cl)O5)cc4)CC3)cc2)c1=O (stereo partly drawn) [Compound 22] | < 500
> 100 | > 100 | ~1 | CCC(C)n1ncn(-c2ccc(N3CCN(c4ccc(OC[C@@H]5CO[C@@](Cn6nccn6)(c6ccc(Cl)cc6Cl)O5)cc4)CC3)cc2)c1=O (stereo partly drawn) [Compound 15] | 500 to 5000
> 100 | > 100 | ~1.5 | CCC(C)n1ncn(-c2ccc(N3CCN(c4ccc(OC[C@@H]5CO[C@@](Cn6nccn6)(c6ccccc6)O5)cc4)CC3)cc2)c1=O (stereo partly drawn) [Compound 42] | < 500
